Measured values: patent US20120003661A1, “METHODS AND DEVICES FOR THE SELECTIVE DETECTION OF MICROORGANISMS” (C3 JIAN, INC., priority 2010, published 2012)
“Also recorded” adds a separate entry of the source.

test system: bacteria, fungi, and/or yeasts; type: binding; settings: microorganism(s) listed as target(s) of the targeting peptide; wrapped target lists given cell by cell

| Substance | Target(s) |
| --- | --- |
| PF-020 (MKIILLLFLIFGFIVVVTLKSEHQLTLFSI) | S. epidermidis, M. luteus, C. albicans,; also recorded: MRSA, S. pneumoniae,; also recorded: E. faecalis |
| PF-055 (GHVFNGNNKRNL) | S. mutans |
| 1T-282 (ISLVFPAYT) | F. nucleatum, P. gingivalis, S. gordonii,; also recorded: S. mitis, S. mutans, S. oralis,; also recorded: S. salivarious, S. sanguinis |
| PF-162 (GIRRLHSVENLNREISHRMAGLR) | S. epidermidis, MRSA |
| PF-S003 (ALALLKQDLLNFEGRGRIITSTYLQFNEGCVP) | yeast and hyphal forms |
| PF-016 (RKQYDDLSFNFLY) | S. epidermidis, E. faecalis, C. jeikeium |
| 1T-272 (QLAPIDKQLKAVKKIAFYESESTAAKAVTVA) | F. nucleatum, S. mutans, S. oralis,; also recorded: S. sanguinis |
| PF-039 (MLEEKNKSL) | P. mirabilis, C. jeikeium |
| PF-147 (RRPRRRRSGHGQSASAA) | S. epidermidis, M. luteus, MRSA |
| PF-010 (MDIDVNKLLQAFVYFKSFEKLRHNNS) | S. epidermidis, M. luteus, E. coli,; also recorded: C. albicans |
| PF-164 (EEVSRALAGIGLGLGCRIG) | S. epidermidis, M. luteus, E. coli,; also recorded: C. jeikeium |
| 1T-261 (SFEKNKIENNLKIAQAYIYIKPKPRICQA) | F. nucleatum, S. mutans, S. oralis,; also recorded: S. sanguinis |
| PF-050 (SYYLKRREEKGK) | S. epidermidis, M. luteus, E. coli,; also recorded: C. jeikeium |
| PF-061 (GYNSYKAVQDVKTHSEEQRVTAKK) | S. epidermidis, S. pneumoniae |
| PF-041 (ELLVILPGFI) | MRSA |
| 1T-293 (HVEDCFLLSNARTTAIHGRANPARGEPRTRSE) | A. naeslundii, F. nucleatum, P. gingivalis,; also recorded: S. epidermidis, S. gordonii,; also recorded: S. mitis, S. mutans, S. oralis,; also recorded: S. salivarious, S. sanguinis |
| 1T-263 (FIAVSFTGNPATFKLVIGCKADN) | A. naeslundii, F. nucleatum, P. gingivalis,; also recorded: S. epidermidis, S. gordonii,; also recorded: S. mitis, S. oralis, S. salivarious,; also recorded: S. sanguinis |
| PF-051 (RFFNFEIKKSTKVDYVFAHVDLSDV) | C. albicans hyphae; also recorded: S. epidermidis, M. luteus, P. aeruginosa,; also recorded: C. albicans, MRSA,; also recorded: S. pneumoniae, E. faecalis |
| PF-173 (AGRTAIVQGGG) | S. epidermidis, M. luteus, P. mirabilis,; also recorded: E. coli, P. aeruginosa,; also recorded: C. albicans, C. jeikeium, C. jejuni |
| PF-133 (GDPTAGQKPVECP) | S. epidermidis, C. jeikeium, C. jejuni,; also recorded: M. smegmatis |
| PF-135 (PPARPARIPQTPTLHGASLFRQRS) | S. epidermidis, M. luteus, E. coli,; also recorded: P. aeruginosa, MRSA, C. jeikeium,; also recorded: M. smegmatis |
| PF-054 (VSISRFIGGGHVFNGNNKRNL) | S. epidermidis, E. coli |
| PF-101 (DPVPERQEQACACHRTAKPGK) | S. mutans |
| PF-058 (FADQSQDNA) | S. epidermidis, M. luteus, E. coli,; also recorded: C. albicans, MRSA, C. jeikeium,; also recorded: C. jejuni |

same assay, conditions: microorganism(s) that the targeting peptide binds, as listed in Table 2

| Substance | Target(s) |
| --- | --- |
| PF-C285 (FTIIELKKQKIKHGENNKKTAHPLNEPFCARA) | A. naeslundii, F. nucleatum, P. gingivalis,; also recorded: S. mutans, T. denticola |
| PF-C139 (LLASHPERLSLGVFFVYRVLHLLLENT) | A. naeslundii, F. nucleatum, P. gingivalis,; also recorded: S. mutans, T. denticola |
| PF-800 (WYYFDNNGYM) | S. mutans |
| PF-S003 (ALALLKQDLLNFEGRGRIITSTYLQFNEGCVP) | S. epidermidis, M. luteus, P. mirabilis,; also recorded: E. coli, P. aeruginosa,; also recorded: C. albicans, MRSA, S. pneumoniae,; also recorded: E. faecalis, C. jeikeium,; also recorded: C. jejuni, M. smegmatis |
| PF-C061 (TLNYKKMFFSVIFLLGLNYLICNSPLFFKQIEF) | A. naeslundii, F. nucleatum, P. gingivalis,; also recorded: S. mutans, T. denticola |
| PF-C091 (ASNTPRFVRLTLFNFYSKIWNVTHLFLFNNL) | A. naeslundii, F. nucleatum, P. gingivalis,; also recorded: S. mutans, T. denticola |
| PF-788 (GLITVFAGTARILQLRRAAKKTHAAALR) | Mycobacteria spp. |
| PF-C095 (LLALNMNEDTYYFELFFIFDNQNKKWLIFDLKERG) | A. naeslundii, F. nucleatum, P. gingivalis,; also recorded: S. mutans |
| PF-C084 (FFSVIFLFGLNYLICNSPLFNILR) | A. naeslundii, F. nucleatum, P. gingivalis,; also recorded: S. mutans |
| PF-795 (ALHKSGIQVIADWVPDQIYN) | S. mutans |
| PF-C003 (FCSVDHDVITIAADHVKQGAEA) | A. naeslundii, P. gingivalis, S. mutans |
| PF-794 (NLYFENQGN) | S. mutans |

same assay, conditions: microorganism(s) the targeting peptide binds, as listed in Table 2

| Substance | Target(s) |
| --- | --- |
| 1T-104 (RAVAAHLQGRHHGHQVRRQRHGQR) | S. mitis |
| 1T-160 (AQYKYINKLLN) | A. naeslundii, F. nucleatum, P. gingivalis,; also recorded: T. denticola, S. gordonii,; also recorded: S. mitis, S. mutans, S. oralis,; also recorded: S. salivarious, S. sanguinis |
| 1T-202 (LCRLEKLCKQFLRQDKVVTYYLMLPYKRAIEAFYQELKERS) | A. naeslundii, F. nucleatum, P. gingivalis,; also recorded: S. epidermidis, S. gordonii,; also recorded: S. mitis, S. mutans, S. oralis,; also recorded: S. salivarious, S. sanguinis |
| 1T-165 (CYDSFDFSIFVTFANRMKLSVGS) | A. naeslundii, F. nucleatum, P. gingivalis,; also recorded: S. epidermidis, S. gordonii,; also recorded: S. mitis, S. mutans, S. oralis,; also recorded: S. salivarious, S. sanguinis |
| 1T-156 (GRFQISIRGEEKSKVKVQGKGTFTDRNTT) | A. naeslundii, F. nucleatum, P. gingivalis,; also recorded: T. denticola, S. gordonii,; also recorded: S. mitis, S. mutans, S. oralis,; also recorded: S. salivarious, S. sanguinis |
| 1T-150 (YINRRLKKAFSDADIKEAPAEFYEELRRVQYV) | A. naeslundii, F. nucleatum, P. gingivalis,; also recorded: T. denticola, S. gordonii,; also recorded: S. mitis, S. mutans, S. oralis,; also recorded: S. salivarious, S. sanguinis |
| 1T-152 (YVSADESAYNHIVTDDIPLADRRIEAVQQ) | A. naeslundii, F. nucleatum, P. gingivalis,; also recorded: S. epidermidis, S. gordonii,; also recorded: S. mitis, S. mutans, S. oralis,; also recorded: S. salivarious, S. sanguinis |
| 1T-162 (QKAKEESDRKAAVSYNGFHRVNVVSIPK) | A. naeslundii, F. nucleatum, P. gingivalis,; also recorded: T. denticola, S. gordonii,; also recorded: S. mitis, S. mutans, S. oralis,; also recorded: S. salivarious, S. sanguinis |
| 1T-42 (TVLDWLSLALATGLFVYLLVALLRADRA) | S. aureus, S. epidermidis, C. xerosis,; also recorded: C. striatum, P. aeruginosa |
| 1T-43 (DRCLSVLSWSPPKVSPLI) | C. jeikium, P. aeruginosa |
| 1T-239 (ADDLLNKRLTDLIMENAETVKTIDLDNSD) | A. naeslundii, S. gordonii, S. mitis,; also recorded: S. mutans, S. oralis, S. sanguinis |
| 1T-74 (DIDWGRKISCAAGVAYGAIDGCATTV) | S. pneumoniae |
| 1T-86 (HRKNPVLGVGRRHRAHNVA) | S. mitis, S. oralis, S. salivarious |
| 1T-3 (VLGIAGGLDAYGELVGGN) | S. mutans, S. gordonii |
| 1T-171 (SVRAVKPIDKTVARHFPGDFIVN) | A. naeslundii, F. nucleatum, P. gingivalis,; also recorded: S. epidermidis, S. gordonii,; also recorded: S. mitis, S. mutans, S. oralis,; also recorded: S. salivarious, S. sanguinis |
| 1T-61 (HATLLPAVREAISRQLLPALVPRG) | P. aeruginosa |
| 1T-35 (EICLTLVFPIRGSYSEAAKFPVPIHIVEDGTVELPK) | P. aeruginosa |

| Substance | Target(s) |
| --- | --- |
| 1T-135 (FESLLPQATKKIVNNKGSKINKIF) | A. naeslundii, P. gingivalis, S. epidermidis,; also recorded: S. gordonii, S. mitis,; also recorded: S. mutans, S. oralis, S. salivarious,; also recorded: S. sanguinis |
| 1T-29 (GSVIKKRRKRMSKKKHRKMLRRTRVQRRKLGK) | S. mutans, S. aureus, S. epidermidis,; also recorded: C. jeikeium, C. xerosis,; also recorded: C. striatum, P. aeruginosa |
| 1T-174 (SGGSDTDGSSSGEPGSHSGDL) | A. naeslundii, F. nucleatum, P. gingivalis,; also recorded: T. denticola, S. gordonii,; also recorded: S. mitis, S. mutans, S. oralis,; also recorded: S. salivarious, S. sanguinis |
| 1T-145 (VEAGKRNISLENIEKISKGLGISISELFKYIEEGEDKIG) | S. mitis, S. mutans, S. oralis |
| 1T-95 (GHLLRVGGRVGGVGGVAGACAQPFGGQ) | S. gordonii, S. mitis, S. mutans,; also recorded: S. oralis, S. sanguinis |
| 1T-201 (KRKHENVIVAEEMRVIKN) | S. sanguinis |
| 1T-69 (ILSQEADRKKLF) | S. mutans, P. aeruginosa |
| 1T-72 (EPTDGVACKER) | P. aeruginosa |
| 1T-130 (QKIIDMSKFLFSLILFIMIVVIYIGKSIGGYSAIVSSIMLELDTVLYNKKIFFIYK) | A. naeslundii, F. nucleatum, P. gingivalis,; also recorded: S. epidermidis, S. gordonii,; also recorded: S. mitis, S. mutans, S. oralis,; also recorded: S. salivarious, S. sanguinis |
| 1T-98 (VRSAKAVKALTAAGYTGELVNVSGGMKAWLGQ) | A. naeslundii, F. nucleatum, P. gingivalis,; also recorded: S. epidermidis, S. gordonii,; also recorded: S. mitis, S. mutans, S. oralis,; also recorded: S. salivarious, S. sanguinis |
| 1T-66 (DTDCLSRAYAQRIDELDKQYAGIDKPL) | S. mutans, S. aureus, S. epidermidis,; also recorded: C. jeikeium, C. xerosis,; also recorded: C. striatum, P. aeruginosa |
| 1T-30 (GKAKPYQVRQVLRAVDKLETRRKKGGR) | S. aureus, S. epidermidis, C. xerosis,; also recorded: C. striatum, P. aeruginosa |
| 1T-173 (LFRKEDQEHVLL) | A. naeslundii, F. nucleatum, P. gingivalis,; also recorded: S. gordonii, S. mitis,; also recorded: S. mutans, S. oralis, S. salivarious,; also recorded: S. sanguinis |
| 1T-147 (GVENRRFYERDVSKVSMMTSEAVAPRGGSK) | A. naeslundii, F. nucleatum, P. gingivalis,; also recorded: T. denticola, S. gordonii,; also recorded: S. mitis, S. mutans, S. oralis,; also recorded: S. salivarious, S. sanguinis |
| 1T-113 (HGAHQRTGQRLHHHRGRTVSGCRQNPVAGVDPDEHR) | S. mitis |
| 1T-60 (YLTSLGLDAAEQAQGLLTILKG) | S. aureus, S. epidermidis, C. jeikeium,; also recorded: C. striatum, P. aeruginosa |
